Entries after “also recorded” stand apart in the source; their conditions may differ.
How the values were obtained:
[1] = tested on: TFEB; assay: Confocal imaging of TFEB localization in MLE12 cells stably expressing TFEB-EGFP; type: cell-based, murine; settings: dose dependent, 18 hours / 24 hours
Protocol: (§1) FIGS. 2A-C. BC1753 increases TFEB polypeptide levels. A. The structure of BC1753 is provided. B. MLE12 cells stably expressing TFEB-EGFP were treated with the indicated amounts of BC1753 for 24 hours before immunoblotting for TFEB-GFP and β-actin. C. MLE12 cells stably expressing TFEB-EGFP were treated with the indicated amounts of BC1753 for 24 hours before imaging by confocal microscopy (scale bar=10 μm).
(§2) BC1753 (FIG. 2A) was tested for its ability to increase TFEB polypeptide levels. Briefly, murine lung epithelial cells (MLE12) stably expressing TFEB-EGFP were treated with BC1753 in a dose dependent manner for 18 hours. Cells were then collected and assayed by immunoblotting for TFEB-GFP protein levels (FIG. 2B). Murine lung epithelial cells (MLE12) stably expressing TFEB-EGFP were treated with […] in a dose dependent manner for 18 hours. Cells were then fixed with 4% PFA followed by DAPI staining. TFEB localization was imaged on the GFP channel along with the DAPI signal using a Nikon A1 confocal microscope (FIG. 2C).

[2] = tested on: TFEB; assay: Immunoblotting for TFEB-GFP protein levels in MLE12 cells stably expressing TFEB-EGFP; type: cell-based, murine; settings: dose dependent, 18 hours / 24 hours
Protocol: as §1, §2

[3] = tested on: BEAS-2B cells; assay: Toxicity: compound concentration needed to induce greater than 50 percent of cell loss; type: cell-based, human; settings: 18 hours incubation
How it was run: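 Reported value is the concentration giving greater than 50 percent cell loss, grouped into bins (≥25 μM; between 1 and 25 μM; ≤1 μM as "+++"). Measured by high-content imaging of DAPI-stained BEAS-2B TFEB-EGFP cells fixed after 18 h compound exposure.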

[4] = tested on: liver lysosomes; assay: Liver lysosomal activity in mice (dextran blue confocal microscopy, Lamp2 immunostaining); type: in vivo; settings: female C57BL6 mice, i.p. for 4 days, 50 mg/kg/d or 30 mg/kg/day; for liver lysosomal dextran blue signal (lysosomal number and activity): liver 24 hours after i.v. dextran blue; for liver Lamp2 staining: liver slides
Protocol: FIG. 7. Compound 15 increases liver lysosomal activity. Female C57BL6 mice were intraperitoneally (i.p.) injected with Cmpd. 15 (50 mg/kg/d) for 4 days. Mice were then intravenously (i.v.) injected with dextran blue. 24 hours later, mice were sacrificed, and livers were removed and imaged through confocal microscopy. White fluorescent signal indicates dextran blue within lysosome and provides a measure of lysosomal number and activity within the hepatic tissue (Upper panels). […] Scale bar: 50 microns.
Female C57BL6 mice were i.p. injected with Compound 15 (30 mg/kg/day) for 4 days. Mice were then i.v. injected with dextran blue. 24 hours later, mice were sacrificed, and liver samples were removed and imaged through confocal microscopy.

[5] = tested on: TFEB; assay: High content screen measuring TFEB nuclear accumulation (TFEB nuclear/cytosol ratio) in BEAS-2B cells stably expressing TFEB-EGFP; type: cell-based, human; settings: 18 hours incubation
How it was run: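 Readout: lowest compound concentration giving a 25% rise in nuclear/cytosol TFEB-GFP ratio, from DAPI-masked nuclear and mask-expanded cytosolic signals. Cells (BEAS-2B, TFEB-EGFP stable, ~2300–2500/well) rested 8 hours, then treated 18 hours with compound serial dilutions in 2% FBS medium before PFA fixation and DAPI staining.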

[6] = tested on: b-hexosaminidase (a lysosomal enzyme); assay: Secreted b-hexosaminidase activity normalized with cellular b-hexosaminidase activity in Beas2B cells; type: cell-based, human; settings: indicated concentration, 18 hours
Protocol: (§3) FIGS. 5A-B. Compound 133 and Compound 115 increased lysosomal protein expression and secretion. A. Beas2B cells were treated with Cmpd. 133 at 10 μM for 24 hours. Cells then were collected and assayed for lysosomal protein gene expression. B. Beas2B cells were treated with Cmpd. 115 at the indicated concentration for 18 hours. Secreted b-hexosaminidase activity (a lysosomal enzyme) then was measured and normalized with cellular b-hexosaminidase activity.

[7] = tested on: lysosomal protein gene expression; assay: Lysosomal protein gene expression in Beas2B cells; type: cell-based, human; settings: 10 μM for 24 hours
Protocol: as §3

[8] = tested on: Beas2B cells; assay: Lysosome quantity in Beas2B cells (light microscope, lysotracker Red confocal microscopy); type: cell-based, human; settings: 18 hours, 1 μM or indicated concentrations
Protocol: FIGS. 4A-B. Compound 178 (BC1834) and Compound 160 (BC18200) increased lysosome quantity. A. Beas2B cells were treated with Cmpd. 178, Cmpd. 160, or the GSK3b inhibitor TWS119 (1 μM for 18 hours). Cells were then imaged through light microscope. B. Beas2B cells were treated with Cmpd. 178 for 18 hours at the indicated concentrations. Cells were then stained with lysotracker Red (100 nM) for 30 minutes. Cells then were washed and imaged through confocal microscopy.

[9] = tested on: GFP-72Q (Huntingtin); assay: GFP-Huntingtin levels in SH5Y cells stably transfected with GFP-72Q (confocal imaging, immunoblot); type: cell-based; settings: SH5Y cells stably expressing GFP-Huntingtin (72Q), indicated amounts, 24 hours
Protocol: FIGS. 6A-B. Compound 178 reduced Huntingtin gene expression. A-B. SH5Y cells stably transfected with GFP-72Q (Huntingtin) were treated with the indicated amounts of Cmpd. 178 for 24 hours. Cells then were imaged with a confocal microscope or collected and assayed for protein expression using a GFP-Huntingtin immunoblot.
Compound 178 (BC1834) was tested for the ability to reduce Huntingtin polypeptide levels within cells. Briefly, Compound 178 was administered to SH5Y cells stably expressing GFP-Huntingtin (72Q).

Row | Structure (SMILES) | nuclear TFEB polypeptide accumulation (confocal microscopy) [1] | total TFEB polypeptide levels within cells (TFEB-GFP immunoblot) [2] | toxicity (compound concentration needed to induce greater than 50 percent of cell loss) [3] | liver lysosomal dextran blue signal (lysosomal number and activity) [4] | liver Lamp2 staining [4] | efficacy (minimal compound concentration needed to increase TFEB nuclear/cytosol ratio by 25%) [5] | secretion of the lysosomal enzyme beta hexosaminidase [6] | lysosomal protein expression [7] | lysosome quantity [8] | GFP-Huntingtin polypeptide levels [9]
1 | COc1ccc(-n2c(=O)c3ccc(C(=O)NCCc4ccccc4)cc3n(CC(=O)Nc3ccc(C)cc3)c2=O)cc1 [BC1753] | increased | increases; also recorded: drastically increased |  |  |  |  |  |  |  | 
2 | c1ccc2c(Nc3ccc4ccncc4c3)nc(-c3ccncc3)nc2c1 [Compound 13] |  |  | + (cell loss of greater than 50 percent at a concentration that equals or is greater than 25 μM was represented as) | drastically increased | drastically increased | + (“+” equals >25 μM) |  |  |  | 
3 | c1ccc2c(Nc3ccc4[nH]ccc4c3)nc(-c3ccncc3)nc2c1 [Compound 15] |  |  | + (cell loss of greater than 50 percent at a concentration that equals or is greater than 25 μM was represented as) | increases | enhanced signals | +++ (“+++” equals ≤1 μM) |  |  |  | 
4 | COc1cccc2c(Nc3ccc4[nH]ccc4c3)nc(-c3ccncc3)nc12 [Compound 115] |  |  | + (cell loss of greater than 50 percent at a concentration that equals or is greater than 25 μM was represented as) |  |  | + (“+” equals >25 μM) | increased |  |  | 
5 | c1cnc2nc(-c3ccncc3)nc(Nc3ccc4c(c3)OCO4)c2c1 [Compound 133] |  |  | + (cell loss of greater than 50 percent at a concentration that equals or is greater than 25 μM was represented as) |  |  | +++ (“+++” equals ≤1 μM) |  | increased |  | 
6 | c1ccc2c(Nc3ccc4[nH]ncc4c3)nc(-c3ccncc3)nc2c1 [Compound 160] |  |  | ++ (cell loss of greater than 50 percent at a concentration less than 25 μM and greater than 1 μM was represented as) |  |  | +++ (“+++” equals ≤1 μM) | increase | increase | increase | 
7 | Fc1cccc(Nc2nc(-c3ccncc3)nc3ccccc23)c1 [Compound 178] |  |  | + (cell loss of greater than 50 percent at a concentration that equals or is greater than 25 μM was represented as) |  |  | +++ (“+++” equals ≤1 μM) | increase | increase | increase | dose dependently reduced
8 | c1cnc2cc(-c3ccncc3)nc(Nc3ccc4nc(C5CCC5)sc4c3)c2c1 [Compound 402] |  |  | + (cell loss of greater than 50 percent at a concentration that equals or is greater than 25 μM was represented as) |  |  | +++ (“+++” equals ≤1 μM) |  |  |  | 

From patent US12286442B2, “Methods and materials for increasing transcription factor eb polypeptide levels” (University of Pittsburgh—Of the Commonwealth System of …, priority 2019, dated 2025)
